In the NIST ThermoML archive (doi:10.1021/acs.jced.7b00107):

Details: for molar entropy: 101.33 kPa; for Triple point temperature: Adiabatic calorimetry

Cl.NC12CC3CC(CC(C3)C1)C2 [1-aminoadamantane hydrochloride]
Details | molar entropy [J/K/mol]
5 K, Crystal 3, Small (less than 1 g) adiabatic calorimetry | 0.1924
10 K, Crystal 3, Small (less than 1 g) adiabatic calorimetry | 1.564
15 K, Crystal 3, Small (less than 1 g) adiabatic calorimetry | 4.477
20 K, Crystal 3, Small (less than 1 g) adiabatic calorimetry | 8.48
25 K, Crystal 3, Small (less than 1 g) adiabatic calorimetry | 13.09
30 K, Crystal 3, Small (less than 1 g) adiabatic calorimetry | 17.99
35 K, Crystal 3, Small (less than 1 g) adiabatic calorimetry | 22.99
40 K, Crystal 3, Small (less than 1 g) adiabatic calorimetry | 27.96
45 K, Crystal 3, Small (less than 1 g) adiabatic calorimetry | 32.87
50 K, Crystal 3, Small (less than 1 g) adiabatic calorimetry | 37.68
60 K, Crystal 3, Small (less than 1 g) adiabatic calorimetry | 46.99
70 K, Crystal 3, Small (less than 1 g) adiabatic calorimetry | 55.88
80 K, Crystal 3, Small (less than 1 g) adiabatic calorimetry | 64.42
90 K, Crystal 3, Small (less than 1 g) adiabatic calorimetry | 72.68
100 K, Crystal 3, Small (less than 1 g) adiabatic calorimetry | 80.74
110 K, Crystal 3, Small (less than 1 g) adiabatic calorimetry | 88.67
120 K, Crystal 2, Small (less than 1 g) adiabatic calorimetry | 96.9
120 K, Crystal 3, Small (less than 1 g) adiabatic calorimetry | 96.53
123.1 K, Crystal 1, Small (less than 1 g) adiabatic calorimetry | 100.6
123.1 K, Crystal 2, Small (less than 1 g) adiabatic calorimetry | 99.33
130 K, Crystal 1, Small (less than 1 g) adiabatic calorimetry | 106
140 K, Crystal 1, Small (less than 1 g) adiabatic calorimetry | 113.7
150 K, Crystal 1, Small (less than 1 g) adiabatic calorimetry | 121.3
160 K, Crystal 1, Small (less than 1 g) adiabatic calorimetry | 128.7
170 K, Crystal 1, Small (less than 1 g) adiabatic calorimetry | 136
180 K, Crystal 1, Small (less than 1 g) adiabatic calorimetry | 143.3
190 K, Crystal 1, Small (less than 1 g) adiabatic calorimetry | 150.5
200 K, Crystal 1, Small (less than 1 g) adiabatic calorimetry | 157.7
210 K, Crystal 1, Small (less than 1 g) adiabatic calorimetry | 164.8
220 K, Crystal 1, Small (less than 1 g) adiabatic calorimetry | 172
230 K, Crystal 1, Small (less than 1 g) adiabatic calorimetry | 179.1
240 K, Crystal 1, Small (less than 1 g) adiabatic calorimetry | 186.3
250 K, Crystal 1, Small (less than 1 g) adiabatic calorimetry | 193.4
260 K, Crystal 1, Small (less than 1 g) adiabatic calorimetry | 200.6
270 K, Crystal 1, Small (less than 1 g) adiabatic calorimetry | 207.8
280 K, Crystal 1, Small (less than 1 g) adiabatic calorimetry | 215
290 K, Crystal 1, Small (less than 1 g) adiabatic calorimetry | 222.2
298.15 K, Crystal 1, Small (less than 1 g) adiabatic calorimetry | 228.1
300 K, Crystal 1, Small (less than 1 g) adiabatic calorimetry | 229.5
310 K, Crystal 1, Small (less than 1 g) adiabatic calorimetry | 236.7
320 K, Crystal 1, Small (less than 1 g) adiabatic calorimetry | 244
330 K, Crystal 1, Small (less than 1 g) adiabatic calorimetry | 251.3
340 K, Crystal 1, Small (less than 1 g) adiabatic calorimetry | 258.6
350 K, Crystal 1, Small (less than 1 g) adiabatic calorimetry | 265.9
360 K, Crystal 1, Small (less than 1 g) adiabatic calorimetry | 273.3
370 K, Crystal 1, Small (less than 1 g) adiabatic calorimetry | 280.6
380 K, Crystal 1, Small sample (50 mg) DSC | 288
390 K, Crystal 1, Small sample (50 mg) DSC | 295.4
400 K, Crystal 1, Small sample (50 mg) DSC | 302.8
410 K, Crystal 1, Small sample (50 mg) DSC | 310.2
420 K, Crystal 1, Small sample (50 mg) DSC | 317.6
430 K, Crystal 1, Small sample (50 mg) DSC | 325
440 K, Crystal 1, Small sample (50 mg) DSC | 332.5
450 K, Crystal 1, Small sample (50 mg) DSC | 339.9
460 K, Crystal 1, Small sample (50 mg) DSC | 347.3
470 K, Crystal 1, Small sample (50 mg) DSC | 354.8

Details | Triple point temperature [K]
Crystal 2 | 123.1
Crystal 3 | 120
